Data as given in patent US9429566B2, “Assay for inhibitors of CIP/KIP protein degradation” (UNIVERSITE DE MONTREAL, priority 2011, dated 2016).
Peptide text beside a SMILES is read from it. * marks the point of attachment. Cbz = O=C(OCc1ccccc1)*

What was measured:
endogenous p21 protein = experiment: p21 ELISA of endogenous p21 protein; type: cell-based; settings: dose-response, normalized to DMSO, FIG. 10B
Description: Luciferase values are normalized to the control DMSO (set to 1). […] ELISA values are normalized to the control DMSO.
The p21-Rluc degradation assay was next transposed to a HTS-compatible format in 384-well plates and used to screen the Institut de Recherche en Immunologie et Cancerologie's (IRIC's) collection of 112,900 compounds (FIG. 6) derived from the Chembridge DIVERset™ screening library, the Maybridge Hitfinder™ screening library, the Specs screening library, the Microsource […]™ collection, the Biomol/Enzo Life Sciences Screen-Well™ library, the Prestwick Chemical Library™ library and the Sigma LOPAC^1280™. The potent proteasome inhibitor MG-132 was used as positive control. The mean increase of p21-Rluc signal by all positive controls across the screen was 3.062 (FIG. 6). This value was set at 100% stabilization and used as comparison reference for test compounds. From the primary screen, 686 compounds that increase the p21-Rluc luminescence signal by at least 1.7-fold and 4 SDs above baseline (DMSO control) were identified (FIG. 5). These compounds were re-tested in a reconfirmation experiment using the same assay conditions. […] Confirmed hits were then tested in a secondary assay using Rluc alone to eliminate compounds that increase luciferase enzymatic activity or boost the luminescence signal. […]

p21-Rluc fusion protein = experiment: High throughput p21 degradation assay (p21-Rluc reporter, cycloheximide); type: cell-based, human; settings: MG132 25 μM, set at 100% stabilization
Description: Stable cell lines from frozen vials were thawed and resuspended in phenol red-free DMEM (Wisent) supplemented with 10% NBCS (day 0). Two days after, cells were trypsinized and seeded at 2500 cells/well into white 384-well plates (BD Bioscience). Doxycyclin was added at 1 μg/ml into the culture medium in order to induce the expression of Rluc and/or p21-Rluc (day 2). Cells were incubated at 37° C. for 18 h. On day 3, 5 μl of cycloheximide was added into each well to reach a final concentration of 50 μg/ml. The proteasome inhibitor MG132 was added into few wells on each plate as positive control at a final concentration of 25 μM. […] The reaction was allowed to proceed for 5 minutes and luminescence was monitored using EnVision™ plate reader (Perkin Elmer) set to “Enhanced luminescence” mode.
To identify small molecules that lead to an increase in the expression levels of p21, a highly robust HTS-compatible cell-based assay using a reporter protein made of a fusion between the unstable p21 protein and Renilla luciferase (p21-Rluc) was designed. The assay relies on the generation of a fusion protein between p21 and a reporter protein that is quantifiable in a high throughput format. The genetically engineered chimeric protein should behave like the wild type p21 protein, such that the readout signal from the reporter moiety will reflect the regulation of p21. […]

For `CC(C)C[C@@H](C=O)NC(=O)[C@H](CC(C)C)NC(=O)[C@H](CC(C)C)NC(=O)OCc1ccccc1` [MG-132] (Cbz-Leu-Leu-Leu-aldehyde), the “intracellular expression of endogenous p21 protein (ELISA)” value (endogenous p21 protein) was “increase in the intracellular expression of the endogenous protein” and the “mean increase of p21-Rluc signal by all positive controls across the screen” value (p21-Rluc fusion protein) was 3.062.
